Assay results taken from publication PMC9147192, “Small Molecule Arranged Thermal Proximity Coaggregation (smarTPCA)—A Novel Approach to Characterize Protein–Protein Interactions in Living Cells by Similar Isothermal Dose–Responses” (International Journal of Molecular Sciences, 2022).

Molecular target: T1, UBE2O (Homo sapiens, UniProt Q9C0C9)
T1 construct: endogenous in cells; host or cells: HL-60 (ATCC CCL-240)
T1 sequence (Q9C0C9 1-1292): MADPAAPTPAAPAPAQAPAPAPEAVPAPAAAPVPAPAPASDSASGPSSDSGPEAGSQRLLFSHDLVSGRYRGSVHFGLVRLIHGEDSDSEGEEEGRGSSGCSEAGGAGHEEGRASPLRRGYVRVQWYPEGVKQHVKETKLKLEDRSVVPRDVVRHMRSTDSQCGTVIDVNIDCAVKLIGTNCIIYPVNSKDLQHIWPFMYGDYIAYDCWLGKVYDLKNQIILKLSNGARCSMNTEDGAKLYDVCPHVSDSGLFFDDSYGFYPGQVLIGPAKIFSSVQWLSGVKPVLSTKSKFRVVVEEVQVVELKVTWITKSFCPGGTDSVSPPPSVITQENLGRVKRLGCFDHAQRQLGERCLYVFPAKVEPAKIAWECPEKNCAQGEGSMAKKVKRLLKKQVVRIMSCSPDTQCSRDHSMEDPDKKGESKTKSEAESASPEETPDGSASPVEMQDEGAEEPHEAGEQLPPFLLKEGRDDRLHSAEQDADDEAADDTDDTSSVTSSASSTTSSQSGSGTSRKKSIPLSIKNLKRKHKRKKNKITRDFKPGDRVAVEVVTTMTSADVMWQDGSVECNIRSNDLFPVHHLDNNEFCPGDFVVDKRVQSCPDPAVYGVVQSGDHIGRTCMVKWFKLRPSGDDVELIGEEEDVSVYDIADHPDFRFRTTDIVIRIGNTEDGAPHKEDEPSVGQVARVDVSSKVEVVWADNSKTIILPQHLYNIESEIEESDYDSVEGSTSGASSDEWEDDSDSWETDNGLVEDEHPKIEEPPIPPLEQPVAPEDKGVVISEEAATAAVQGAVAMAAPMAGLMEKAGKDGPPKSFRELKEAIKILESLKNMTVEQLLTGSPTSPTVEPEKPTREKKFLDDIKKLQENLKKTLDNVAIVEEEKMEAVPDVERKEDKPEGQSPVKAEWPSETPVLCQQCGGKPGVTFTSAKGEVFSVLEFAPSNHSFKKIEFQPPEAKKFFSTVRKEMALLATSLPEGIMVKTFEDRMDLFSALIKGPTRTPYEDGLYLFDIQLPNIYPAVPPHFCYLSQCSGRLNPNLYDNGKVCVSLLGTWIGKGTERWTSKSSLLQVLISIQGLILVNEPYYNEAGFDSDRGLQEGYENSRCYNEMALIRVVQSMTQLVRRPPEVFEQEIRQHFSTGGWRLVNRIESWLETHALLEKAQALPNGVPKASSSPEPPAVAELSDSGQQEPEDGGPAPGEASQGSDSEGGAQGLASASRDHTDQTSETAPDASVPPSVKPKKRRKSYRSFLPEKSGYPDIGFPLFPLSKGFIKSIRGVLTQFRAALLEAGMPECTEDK
Assay: TPP-CCR in living HL-60 cells
Format: cell-based

For `Cc1cnc(Nc2ccc(F)cc2Cl)nc1-c1c[nH]c(C(=O)N[C@H](CO)c2cccc(Cl)c2)c1` [ERK 11e], the Hill slope (TPP-CCR, living cells, UBE2O) was 0.37, the “Hill slope (UBE2O)” value (living HL-60 cells, […] °C, TMT-MS) was 0.37 and the EC50 (living HL-60 cells, […] °C, TMT-MS, read-out: pEC50 (UBE2O) (converted)) was 0.186 µM.
